We go through one compound from patent EP4813972A1, “CRYSTAL FORM OF BENZENE SULFONATE CONTAINING PIPERIDINE RING COMPOUND, AND PREPARATION METHOD THEREFOR AND USE THEREOF” (Shanghai Curegene Pharmaceutical Co., Ltd., priority 2023, dated 2025).

Data set [1] in a line: Stability study of crystal forms (crystal form status by XRPD after storage). Type of data set: physicochemical. The conditions noted are these: 14 days. The procedure: Test method: The sample was prepared on a zero-background silicon wafer by gently pressing to obtain a flat surface. About 10-20 mg of a sample was used for XRPD analysis.
The nature of data set [2]: Solubility study of crystal forms (aqueous HCl pH 1 / 20 mM phosphate buffer pH about 7, HPLC analysis). It counts as physicochemical. As to the method:
The detailed parameters were as follows:
An aqueous HCl solution at pH 1 was prepared. […] After dissolution by stirring, the solution was adjusted to pH = 1 with 1 N NaOH or 1 N HCl. The timing was started, and after T = 3 h, the pH was measured. […] When T = 4 h, the dissolution status was observed, and a dilution factor was selected according to the dissolution status. 50% ACN was used as a diluent for HPLC analysis. When T = 24 h, the dissolution state was observed. With reference to the concentration data at 4 h and the dissolution state at 24 h, a dilution factor was selected, and HPLC analysis was performed. The solubility was calculated according to the HPLC analysis results described above.
The aqueous HCl solution at pH 1 in the step described above was replaced with a 20 mM phosphate buffer solution at pH of about 7, and the steps described above were repeated. The solubility was calculated.

≈ marks a conversion by molar mass, not a printed value.

Broadly, the solubility is the dissolved amount per volume that the medium holds. For `COC(=O)[C@H](c1ccccc1Cl)N1CC[C@@H](SCOC(=O)OC(C)C)/C(=C\C(=O)O)C1` [Crystal form F1], the “Crystal form after treatment” value is listed as “Crystal form F1” in data set [1] (25 °C/60% RH, open container); “Crystal form F1” in data set [1] (Sealed container at 2-8 °C); “Crystal form F1” in data set [1] (Sealed container at 40 °C); “Crystal form F1” in data set [1] (Sealed container at 60 °C). The solubility at 4 h in data set [2] (20 mm phosphate buffer, pH=7, 4 h) is 9.89 mg/mL (≈ 21 mM); in data set [2] (aqueous hcl, pH=1, 4 h), 11.5 mg/mL (≈ 24.4 mM). Moreover, the solubility at 24 h in data set [2] (20 mm phosphate buffer, pH=7, 24 h) worked out at 6.14 mg/mL (≈ 13 mM); in data set [2] (aqueous hcl, pH=1, 24 h), 11.4 mg/mL (≈ 24.1 mM). For the same compound, the Dissolution status result was “Clear solution” in data set [2] (pH=1, 4 h); “Clear solution” in data set [2] (pH=1, 24 h); “Clear solution” in data set [2] (pH=7, 4 h); “Clear solution” in data set [2] (pH=7, 24 h).
